Data from PubChem BioAssay AID1963865 (Molecular Pharmacology Branch, DTP, NCI, 2024).

Tested on: KRAS PDC multicell spheroid viability
Test: Anticancer human tumor 825966-067-R-J1-PDC patient-derived colon carcinoma cell line growth inhibition [KRAS2]
Details: for IC50: curve of first compound; for viability, T/C: stronger effect = lower value
Outline: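 KRAS-mutant tumor cells were grown as spheroids with HUVEC endothelial cells and human MSCs as stroma. Targeted agents were tested alone and with KRAS pathway inhibitors. Doses started at or near clinical Cmax, or 10 microM, descending half-log.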

[1] = second compound 0.0316 µM, first compound 0.0316 µM
[2] = second compound 0.0316 µM, first compound 0.1 µM
[3] = second compound 0.0316 µM, first compound 0.316 µM
[4] = second compound 0.0316 µM, first compound 1 µM
[5] = second compound 0.0316 µM, first compound 3.16 µM
[6] = second compound 0.0316 µM, first compound 10 µM
[7] = second compound 0.1 µM, first compound 0.0316 µM
[8] = second compound 0.1 µM, first compound 0.1 µM
[9] = second compound 0.1 µM, first compound 0.316 µM
[10] = second compound 0.1 µM, first compound 1 µM
[11] = second compound 0.1 µM, first compound 3.16 µM
[12] = second compound 0.1 µM, first compound 10 µM
[13] = second compound 0.316 µM, first compound 0.0316 µM
[14] = second compound 0.316 µM, first compound 0.1 µM
[15] = second compound 0.316 µM, first compound 0.316 µM
[16] = second compound 0.316 µM, first compound 1 µM
[17] = second compound 0.316 µM, first compound 3.16 µM
[18] = second compound 0.316 µM, first compound 10 µM
[19] = second compound 1 µM, first compound 0.0316 µM
[20] = second compound 1 µM, first compound 0.1 µM
[21] = second compound 1 µM, first compound 0.316 µM
[22] = second compound 1 µM, first compound 1 µM
[23] = second compound 1 µM, first compound 3.16 µM
[24] = second compound 1 µM, first compound 10 µM
[25] = second compound 3.16 µM, first compound 0.0316 µM
[26] = second compound 3.16 µM, first compound 0.1 µM
[27] = second compound 3.16 µM, first compound 0.316 µM
[28] = second compound 3.16 µM, first compound 1 µM
[29] = second compound 3.16 µM, first compound 3.16 µM
[30] = second compound 3.16 µM, first compound 10 µM
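Further: spheroids exposed to compounds for 7 days.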
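Wherever viability, T/C is given: 100% = DMSO vehicle control viability.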

| SMILES | IC50 (second compound 0.0316 µM) [µM] | IC50 (second compound 0.1 µM) [µM] | IC50 (second compound 0.316 µM) [µM] | IC50 (second compound 1 µM) [µM] | IC50 (second compound 3.16 µM) [µM] | viability, T/C [1] [%] | viability, T/C [2] [%] | viability, T/C [3] [%] | viability, T/C [4] [%] | viability, T/C [5] [%] | viability, T/C [6] [%] | viability, T/C [7] [%] | viability, T/C [8] [%] | viability, T/C [9] [%] | viability, T/C [10] [%] | viability, T/C [11] [%] | viability, T/C [12] [%] | viability, T/C [13] [%] | viability, T/C [14] [%] | viability, T/C [15] [%] | other results |
| --- | --- | --- | --- | --- | --- | --- | --- | --- | --- | --- | --- | --- | --- | --- | --- | --- | --- | --- | --- | --- | --- |
| COC(=O)c1ccc2c(C(=Nc3ccc(N(C)C(=O)CN4CCN(C)CC4)cc3)c3ccccc3)c(O)[nH]c2c1 + C=CC(=O)N1CCN(c2nc(OCC3CCCN3C)nc3c2CCN(c2cccc4cccc(C)c24)C3)CC1CC#N | 0.591 | 0.843 | 0.54 | 0.5 | 0.131 | 78.2 | 94.9 | 75 | 28.2 | 0.37 | 0.12 | 107 | 84.5 | 96.4 | 42 | 0.21 | 0.13 | 75.4 | 83.7 | 95.8 | viability, T/C [16]: 9.82%; viability, T/C [17]: 0.13%; viability, T/C [18]: 0.12%; viability, T/C [19]: 78.8%; viability, T/C [20]: 87.2%; viability, T/C [21]: 73.9%; viability, T/C [22]: 13.7%; viability, T/C [23]: 1.46%; viability, T/C [24]: 0.22%; viability, T/C [25]: 87%; viability, T/C [26]: 27.7%; viability, T/C [27]: 65.5%; viability, T/C [28]: 10.5%; viability, T/C [29]: 0.29%; viability, T/C [30]: 0.2% |
| COc1cc(Nc2ncc3c(n2)-c2ccc(Cl)cc2C(c2c(F)cccc2OC)=NC3)ccc1C(=O)O + C=CC(=O)N1CCN(c2nc(OCC3CCCN3C)nc3c2CCN(c2cccc4cccc(C)c24)C3)CC1CC#N | > 10 | > 10 | > 10 | > 10 | 4.43 | 136 | 129 | 144 | 137 | 138 | 127 | 129 | 142 | 123 | 129 | 122 | 140 | 124 | 154 | 112 | viability, T/C [16]: 134%; viability, T/C [17]: 129%; viability, T/C [18]: 141%; viability, T/C [19]: 104%; viability, T/C [20]: 150%; viability, T/C [21]: 153%; viability, T/C [22]: 135%; viability, T/C [23]: 121%; viability, T/C [24]: 114%; viability, T/C [25]: 45%; viability, T/C [26]: 130%; viability, T/C [27]: 73.1%; viability, T/C [28]: 104%; viability, T/C [29]: 67.1%; viability, T/C [30]: 8.84% |
| O=C(c1cc(Cc2n[nH]c(=O)c3ccccc23)ccc1F)N1CCN(C(=O)C2CC2)CC1 + C=CC(=O)N1CCN(c2nc(OCC3CCCN3C)nc3c2CCN(c2cccc4cccc(C)c24)C3)CC1CC#N | > 10 | > 10 | > 10 | > 10 | > 10 | 100 | 119 | 96.8 | 77.1 | 98.4 | 80.2 | 98.7 | 100 | 91.8 | 92.3 | 109 | 95.4 | 94.7 | 91.2 | 104 | viability, T/C [16]: 94.1%; viability, T/C [17]: 96.2%; viability, T/C [18]: 97.9%; viability, T/C [19]: 87.1%; viability, T/C [20]: 94.8%; viability, T/C [21]: 91%; viability, T/C [22]: 93.2%; viability, T/C [23]: 99.6%; viability, T/C [24]: 125%; viability, T/C [25]: 96.3%; viability, T/C [26]: 108%; viability, T/C [27]: 111%; viability, T/C [28]: 110%; viability, T/C [29]: 123%; viability, T/C [30]: 109% |
